Data from the Kinase Knowledgebase extract (Sharma et al. 2016).

Target: EGFR (human) (UniProt P00533)
Sequence (P00533 whole entry, looked up): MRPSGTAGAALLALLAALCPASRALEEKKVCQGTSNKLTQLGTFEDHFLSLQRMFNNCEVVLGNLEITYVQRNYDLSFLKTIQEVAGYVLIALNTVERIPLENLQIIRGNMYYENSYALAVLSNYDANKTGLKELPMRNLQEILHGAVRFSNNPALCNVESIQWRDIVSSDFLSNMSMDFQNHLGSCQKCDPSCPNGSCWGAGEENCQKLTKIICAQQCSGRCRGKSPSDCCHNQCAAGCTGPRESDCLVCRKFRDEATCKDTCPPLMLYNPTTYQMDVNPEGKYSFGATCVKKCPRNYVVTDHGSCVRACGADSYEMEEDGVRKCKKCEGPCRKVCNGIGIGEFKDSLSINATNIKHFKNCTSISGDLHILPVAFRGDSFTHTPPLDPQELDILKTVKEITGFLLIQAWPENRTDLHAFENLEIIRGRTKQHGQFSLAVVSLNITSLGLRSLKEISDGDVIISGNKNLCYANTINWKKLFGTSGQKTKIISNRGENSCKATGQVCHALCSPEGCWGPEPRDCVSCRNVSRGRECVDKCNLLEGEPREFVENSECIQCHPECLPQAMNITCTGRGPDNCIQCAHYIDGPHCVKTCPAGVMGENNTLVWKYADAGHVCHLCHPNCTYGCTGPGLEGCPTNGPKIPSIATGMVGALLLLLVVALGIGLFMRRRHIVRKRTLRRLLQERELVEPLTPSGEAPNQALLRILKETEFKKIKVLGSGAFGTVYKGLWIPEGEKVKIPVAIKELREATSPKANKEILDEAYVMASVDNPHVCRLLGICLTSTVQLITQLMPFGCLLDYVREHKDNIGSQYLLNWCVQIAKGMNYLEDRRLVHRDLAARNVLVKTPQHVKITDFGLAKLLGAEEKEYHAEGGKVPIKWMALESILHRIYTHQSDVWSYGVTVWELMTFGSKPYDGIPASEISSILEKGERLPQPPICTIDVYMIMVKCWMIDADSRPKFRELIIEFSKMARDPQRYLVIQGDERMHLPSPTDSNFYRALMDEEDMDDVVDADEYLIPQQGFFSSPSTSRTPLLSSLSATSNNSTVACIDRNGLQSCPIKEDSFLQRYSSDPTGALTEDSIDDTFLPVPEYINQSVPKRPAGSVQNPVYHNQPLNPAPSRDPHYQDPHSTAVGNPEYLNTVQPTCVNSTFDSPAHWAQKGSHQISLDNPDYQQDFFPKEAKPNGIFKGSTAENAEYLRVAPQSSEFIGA

Compound | IC50 [nM]
C=CC(=O)Nc1cc2c(Nc3ccc(F)c(Cl)c3)ncnc2cc1C#CC(C)(C)N1CCN(CCOC)CC1 | 1.5
C=CC(=O)Nc1cc2c(Nc3ccc(F)c(Cl)c3)ncnc2cc1C#CC(C)(C)N1CCN(CC)CC1 | 3.3
C=CC(=O)Nc1cc2c(Nc3ccc(F)c(Cl)c3)ncnc2cc1C#CC(C)(C)N1CCC(O)CC1 | 1.9
C=CC(=O)Nc1cc2c(Nc3ccc(F)c(Cl)c3)ncnc2cc1C#CCN1CCN(C)CC1 | < 1
C=CC(=O)Nc1cc2c(Nc3ccc(F)c(Cl)c3)ncnc2cc1C#CC(C)(C)N(C)CCOC | 3.7
CN1CCN(CCC#Cc2cc3ncnc(Nc4ccc(F)c(Cl)c4)c3cc2NS(C)(=O)=O)CC1 | < 1
C#Cc1cccc(Nc2ncnc3cc(OCC)c(C#CC(C)(C)N4CCN(C(C)=O)CC4)cc23)c1 | > 10
C=CC(=O)Nc1cc2c(Nc3ccc(F)c(Cl)c3)ncnc2cc1C#CC(C)(C)N1CCCN(C)CC1 | 3.2
COC1CCN(C(C)(C)C#Cc2cc3ncnc(Nc4ccc(F)c(Cl)c4)c3cc2NS(C)(=O)=O)CC1 | 5.3
CC(=O)N1CCN(C(C)(C)C#Cc2cc3ncnc(Nc4ccc(F)c(Cl)c4)c3cc2NS(C)(=O)=O)CC1 | 2.1
C=CC(=O)Nc1cc2c(Nc3ccc(F)c(Cl)c3)ncnc2cc1C#CC(C)(C)N1CCC(OC)CC1 | 4.6
CC(C)(C#Cc1cc2ncnc(Nc3ccc(F)c(Cl)c3)c2cc1NS(C)(=O)=O)N1CCC(=O)CC1 | 2.1
C=CC(=O)Nc1cc2c(Nc3ccc(F)c(Cl)c3)ncnc2cc1C#CC(C)(C)N1CCC(=O)CC1 | 1.8
C=CC(=O)Nc1cc2c(Nc3ccc(F)c(Cl)c3)ncnc2cc1C#CC(C)(C)N1CCN(C)CC1 | 1.8
C=CC(=O)Nc1cc2c(Nc3ccc(F)c(Cl)c3)ncnc2cc1C#CC(COCC)(COCC)N1CCN(C)CC1 | 4.4
C=CC(=O)Nc1cc2c(Nc3ccc(F)c(Cl)c3)ncnc2cc1C#CCCN1CCOCC1 | < 1
CN1CCN(CC#Cc2cc3ncnc(Nc4ccc(F)c(Cl)c4)c3cc2NS(C)(=O)=O)CC1 | < 1
COc1cc2ncnc(Nc3cccc(C(C)=O)c3)c2cc1C#CC(C)(C)N1CCN(C)CC1 | > 10
CCOCC(C#Cc1cc2c(Nc3ccc(F)c(Cl)c3)ncnc2cc1OCC)(COCC)N1CCN(C)CC1 | > 10
C=CC(=O)Nc1cc2c(Nc3ccc(F)c(Cl)c3)ncnc2cc1C#CC(C)(C)N(CCOC)CCOC | 3.5

Compound | IC50 [nM]
COCCN(CCOC)C(C)(C)C#Cc1cc2ncnc(Nc3ccc(F)c(Cl)c3)c2cc1NS(C)(=O)=O | 6.7
C=CC(=O)Nc1cc2c(Nc3ccc(F)c(Cl)c3)ncnc2cc1C#CC(C)(C)N1CCN(S(C)(=O)=O)CC1 | 1.9
C=CC(=O)Nc1cc2c(Nc3ccc(F)c(Cl)c3)ncnc2cc1/C=C/CCN1CCN(C)CC1 | < 1
CCOc1cc2ncnc(Nc3ccc(F)c(Cl)c3)c2cc1C#CC(C)(C)N(C)C1CCN(C)CC1 | 3.8
C=CC(=O)Nc1cc2c(Nc3ccc(F)c(Cl)c3)ncnc2cc1C#CC(C)(C)N1CCN(C(C)=O)CC1 | < 1
CC(C)(C#Cc1cc2ncnc(Nc3ccc(F)c(Cl)c3)c2cc1NS(C)(=O)=O)N1CCN(S(C)(=O)=O)CC1 | 2.1
CN1CCCN(C(C)(C)C#Cc2cc3ncnc(Nc4ccc(F)c(Cl)c4)c3cc2NS(C)(=O)=O)CC1 | 1.9
CS(=O)(=O)Nc1cc2c(Nc3ccc(F)c(Cl)c3)ncnc2cc1C#CCCN1CCOCC1 | < 1
C=CC(=O)Nc1cc2c(Nc3ccc(F)c(Cl)c3)ncnc2cc1C#CC1(N2CCN(C)CC2)CCCCC1 | 2.4
C=CC(=O)Nc1cc2c(Nc3ccc(F)c(Cl)c3)ncnc2cc1C#CC(C)(C)N1CCN(CCC#N)CC1 | 2.9
CCOc1cc2ncnc(Nc3ccc(F)c(Cl)c3)c2cc1C#CCCN1CCN(C)CC1 | 1.2
C=CC(=O)Nc1cc2c(Nc3ccc(F)c(Cl)c3)ncnc2cc1C#CCN1CCOCC1 | < 1
CN(C)CCN(C)C(C)(C)C#Cc1cc2ncnc(Nc3ccc(F)c(Cl)c3)c2cc1NS(C)(=O)=O | 2.9
C=CC(=O)Nc1cc2c(Nc3ccc(F)c(Cl)c3)ncnc2cc1C#CC(C)(C)N(CC)CCC(=O)OC | 2.6
C=CC(=O)Nc1cc2c(Nc3ccc(F)c(Cl)c3)ncnc2cc1C#CC(C)(C)N(C)CCN(C)C | 2.4
C#Cc1cccc(Nc2ncnc3cc(OCC)c(C#CC(C)(C)N(C)C4CCN(C)CC4)cc23)c1 | 3.2
COCCN(C)C(C)(C)C#Cc1cc2ncnc(Nc3ccc(F)c(Cl)c3)c2cc1NS(C)(=O)=O | 3.1
C=CC(=O)Nc1cc2c(Nc3ccc(F)c(Cl)c3)ncnc2cc1C#CC(CC)(CC)N1CCN(C)CC1 | 2.1
C=CC(=O)Nc1cc2c(Nc3ccc(F)c(Cl)c3)ncnc2cc1C#CC(C)(C)N1CCCC1 | 2.6
CCOCC(C#Cc1cc2ncnc(Nc3ccc(F)c(Cl)c3)c2cc1NS(C)(=O)=O)(COCC)N1CCN(C)CC1 | 10.3
